Reference: PMC9785863, “Thioether and Ether Furofuran Lignans: Semisynthesis, Reaction Mechanism, and Inhibitory Effect against α-Glucosidase and Free Radicals” (Molecules, 2022)

biological target: T1, rat intestinal maltase; test: maltose hydrolysis, glucose assay kit, Lineweaver-Burk with secondary replots; assay type: biochemical; settings: mixed inhibition; maltose 0.5-8 mM; pH 6.9, 37 °C
T1 construct: gene Mgam; native, crude extract of rat intestinal acetone powder (Sigma), not purified; maltose-hydrolysing activity, shared by maltase-glucoamylase and sucrase-isomaltase
Text: maltose hydrolysis, glucose assay kit, Lineweaver-Burk with secondary replots on rat intestinal maltase

Ki [mM] | SMILES
0.03 | CC(C)(C)c1cc(SC2OCC3C(c4ccc5c(c4)OCO5)OCC23)cc(C(C)(C)C)c1O (stereo not drawn) [2α-7o]

biological target: T1, rat intestinal maltase; test: maltose hydrolysis, glucose assay kit, absorbance at […] nm; assay type: biochemical; settings: maltose (2 mM stock), 0.1 M phosphate pH 6.9, 37 °C, 10 min; read-out: α-Glucosidase Inhibitory Effect (IC50, mM) ^a / Maltase

IC50 [mM] | SMILES
> 30 | OCCCCCCS[C@H]1OC[C@H]2[C@@H]1CO[C@@H]2c1ccc2c(c1)OCO2 [2α-7b]
1.4 ± 0.2 | C[C@H]1O[C@H](O[C@H]2[C@H](O)[C@@H](O)[C@@H](O[C@H]3[C@H](O)[C@@H](O)C(O)O[C@@H]3CO)O[C@@H]2CO)[C@H](O)[C@@H](O)[C@@H]1N[C@H]1C=C(CO)[C@@H](O)[C@H](O)[C@H]1O (stereo partly drawn) [acarbose, reference compound]
14.7 ± 1 | Oc1ccc(S[C@H]2OC[C@H]3[C@@H]2CO[C@@H]3c2ccc3c(c2)OCO3)cc1 [2α-7f]
14.2 ± 0.8 | Oc1ccc(S[C@@H]2OC[C@H]3[C@@H]2CO[C@@H]3c2ccc3c(c2)OCO3)cc1 [2β-7f]
11.8 ± 0.3 | CC(C)(C)c1cc(SC2OCC3C(c4ccc5c(c4)OCO5)OCC23)cc(C(C)(C)C)c1O (stereo not drawn) [2α-7o]
> 30 | c1cc2c(cc1[C@H]1OC[C@H]3[C@@H]1CO[C@@H]3SC1CCCCC1)OCO2 [2α-7c]
> 30 | CCCCCCCCO[C@H]1OC[C@H]2[C@@H]1CO[C@@H]2c1ccc2c(c1)OCO2 [2α-9b]
> 30 | CCCCCCCCS[C@H]1OC[C@H]2[C@@H]1CO[C@@H]2c1ccc2c(c1)OCO2 [2α-7a]
